What was measured:
B. subtilis 168 [1] = assay: fitness (endpoint OD595 vs no drug) (fraction); higher = more growth
In short: (§1)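 Bacterial growth was followed in 384-well plates seeded at OD595 0.01, with 30 µl per well, or 55 µl for S. pneumoniae, in TSB, LB Lennox or CY at 37 °C. OD595 was read every 30 min for 14 h, and each reading had the first reading subtracted as background. Fitness is the background-corrected optical density at entry into stationary phase divided by the robust mean of the no-drug control wells. This ratio is capped at 1.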

S. aureus DSM 20231 [2] = assay: as above
In short: as §1

S. aureus Newman [3] = assay: as above
In short: as §1

S. pneumoniae D39V [4] = assay: as above
In short: as §1

B. subtilis 168 [5] = assay: Bliss interaction score (quartile over a dose matrix) (fitness difference); higher = more antagonism (negative = synergy)
In short: (§2)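 Combination data were used to infer fitness under each single drug. Fitness is the OD595 at entry into stationary phase divided by the robust mean of the plate's no-drug wells, with a cap of 1. The Bliss score is the observed minus the expected product fitness, summarised by quartiles over technical, biological and donor/recipient replicates.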

S. aureus DSM 20231 [6] = assay: as above
In short: as §2

S. aureus Newman [7] = assay: as above
In short: as §2

S. pneumoniae D39V [8] = assay: as above
In short: as §2
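Throughout, for Bliss interaction score (quartile over a dose matrix): first quartile when negative (synergy) and third quartile when positive (antagonism).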

Cc1onc(-c2ccccc2)c1C(=O)N[C@@H]1C(=O)N2[C@@H]1SC(C)(C)[C@@H]2C(=O)O [Oxacillin] + CN1C2=CC=CC=C2N=C3C1=CC=CC3=O [Pyocyanin]
Conditions | fitness
B. subtilis 168 [1], first compound 0.002 µg/mL, partner 1.25 µg/mL | 0.93
B. subtilis 168 [1], first compound 0.002 µg/mL, partner 2.5 µg/mL | 0.891
B. subtilis 168 [1], first compound 0.002 µg/mL, partner 5 µg/mL | 0.768
B. subtilis 168 [1], first compound 0.004 µg/mL, partner 1.25 µg/mL | 0.918
B. subtilis 168 [1], first compound 0.004 µg/mL, partner 2.5 µg/mL | 0.839
B. subtilis 168 [1], first compound 0.004 µg/mL, partner 5 µg/mL | 0.703
B. subtilis 168 [1], first compound 0.008 µg/mL, partner 1.25 µg/mL | 0.847
B. subtilis 168 [1], first compound 0.008 µg/mL, partner 2.5 µg/mL | 0.79
B. subtilis 168 [1], first compound 0.008 µg/mL, partner 5 µg/mL | 0.675
S. aureus DSM 20231 [2], first compound 0.0156 µg/mL, partner 1.25 µg/mL | 0.761
S. aureus DSM 20231 [2], first compound 0.0156 µg/mL, partner 2.5 µg/mL | 0.766
S. aureus DSM 20231 [2], first compound 0.0156 µg/mL, partner 5 µg/mL | 0.493
S. aureus DSM 20231 [2], first compound 0.0312 µg/mL, partner 1.25 µg/mL | 0.643
S. aureus DSM 20231 [2], first compound 0.0312 µg/mL, partner 2.5 µg/mL | 0.635
S. aureus DSM 20231 [2], first compound 0.0312 µg/mL, partner 5 µg/mL | 0.468
S. aureus DSM 20231 [2], first compound 0.0625 µg/mL, partner 1.25 µg/mL | 0.48
S. aureus DSM 20231 [2], first compound 0.0625 µg/mL, partner 2.5 µg/mL | 0.482
S. aureus DSM 20231 [2], first compound 0.0625 µg/mL, partner 5 µg/mL | 0.362
S. aureus Newman [3], first compound 0.0156 µg/mL, partner 1.25 µg/mL | 0.744
S. aureus Newman [3], first compound 0.0156 µg/mL, partner 2.5 µg/mL | 0.683
S. aureus Newman [3], first compound 0.0156 µg/mL, partner 5 µg/mL | 0.424
S. aureus Newman [3], first compound 0.0312 µg/mL, partner 1.25 µg/mL | 0.625
S. aureus Newman [3], first compound 0.0312 µg/mL, partner 2.5 µg/mL | 0.596
S. aureus Newman [3], first compound 0.0312 µg/mL, partner 5 µg/mL | 0.336
S. aureus Newman [3], first compound 0.0625 µg/mL, partner 5 µg/mL | 0.305
S. pneumoniae D39V [4], first compound 0.01 µg/mL, partner 0.325 µg/mL | ≥ 1
S. pneumoniae D39V [4], first compound 0.01 µg/mL, partner 0.65 µg/mL | ≥ 1
S. pneumoniae D39V [4], first compound 0.01 µg/mL, partner 1.3 µg/mL | 0.684
S. pneumoniae D39V [4], first compound 0.02 µg/mL, partner 0.325 µg/mL | 0.988
S. pneumoniae D39V [4], first compound 0.02 µg/mL, partner 0.65 µg/mL | 0.979
S. pneumoniae D39V [4], first compound 0.02 µg/mL, partner 1.3 µg/mL | 0.672
S. pneumoniae D39V [4], first compound 0.04 µg/mL, partner 0.325 µg/mL | 0.722
S. pneumoniae D39V [4], first compound 0.04 µg/mL, partner 0.65 µg/mL | 0.781
S. pneumoniae D39V [4], first compound 0.04 µg/mL, partner 1.3 µg/mL | 0.547

fitness, B. subtilis 168 [1], one replicate
Conditions | first compound 0.075 µg/mL | first compound 0.15 µg/mL | first compound 0.3 µg/mL
partner 1.25 µg/mL | 0.463 | 0.0474 | 0.0657
partner 2.5 µg/mL | 0.404 | 0.0413 | 0.0539
partner 5 µg/mL | 0.145 | 0.0518 | 0.0652

Conditions | Bliss interaction score
B. subtilis 168 [5] | -0.0582
S. aureus DSM 20231 [6] | -0.0528
S. aureus Newman [7] | -0.0412
S. pneumoniae D39V [8] | 0.188

Cc1onc(-c2ccccc2)c1C(=O)N[C@@H]1C(=O)N2[C@@H]1SC(C)(C)[C@@H]2C(=O)O [Oxacillin] + CN(N=O)C(=O)N[C@@H](C=O)[C@@H](O)[C@H](O)[C@H](O)CO [Streptozotocin]
fitness, B. subtilis 168 [1], one replicate
Conditions | first compound 0.002 µg/mL | first compound 0.004 µg/mL | first compound 0.008 µg/mL | first compound 0.075 µg/mL | first compound 0.15 µg/mL | first compound 0.3 µg/mL
partner 0.15 µg/mL | ≥ 1 | ≥ 1 | 0.946 | 0.593 | 0.0403 | 0.0476
partner 0.3 µg/mL | 0.98 | ≥ 1 | 0.983 | 0.377 | 0.0243 | 0.0338
partner 0.6 µg/mL | 0.998 | ≥ 1 | 0.882 | 0.593 | 0.0217 | 0.0158

fitness
Conditions | first compound 0.01 µg/mL | first compound 0.0156 µg/mL | first compound 0.02 µg/mL | first compound 0.0312 µg/mL | first compound 0.04 µg/mL | first compound 0.0625 µg/mL
S. aureus DSM 20231 [2], partner 0.15 µg/mL | – | 0.693 | – | 0.596 | – | 0.462
S. aureus DSM 20231 [2], partner 0.3 µg/mL | – | 0.635 | – | 0.582 | – | 0.493
S. aureus DSM 20231 [2], partner 0.6 µg/mL | – | 0.549 | – | 0.494 | – | 0.396
S. aureus Newman [3], partner 0.15 µg/mL | – | 0.663 | – | 0.613 | – | 0.538
S. aureus Newman [3], partner 0.3 µg/mL | – | 0.593 | – | 0.57 | – | 0.466
S. aureus Newman [3], partner 0.6 µg/mL | – | 0.454 | – | 0.387 | – | 0.228
S. pneumoniae D39V [4], partner 1.2 µg/mL | 0.941 | – | 0.889 | – | 0.243 | –
S. pneumoniae D39V [4], partner 2.4 µg/mL | 0.977 | – | 0.873 | – | 0.245 | –
S. pneumoniae D39V [4], partner 4.8 µg/mL | 0.927 | – | 0.866 | – | 0.212 | –

Conditions | Bliss interaction score
B. subtilis 168 [5] | 0.0537
S. aureus DSM 20231 [6] | -0.0548
S. aureus Newman [7] | -0.0656
S. pneumoniae D39V [8] | -0.0748
